In ChEMBL document CHEMBL4665746, “Viennamycins: Lipopeptides Produced by a Streptomyces sp” (J Nat Prod, 2020):
The source made the active and inactive calls.

Tests used:
[1] = system: Bacillus subtilis; assay: Antimicrobial activity against Bacillus subtilis in presence of >= 5 mM Zn2+; assay type: functional, organism-based
[2] = system: Bacillus subtilis; assay: Antimicrobial activity against Bacillus subtilis in presence of >= 5 mM Mg2+; assay type: functional, organism-based
[3] = system: Bacillus subtilis; assay: Antimicrobial activity against Bacillus subtilis in presence of >= 5 mM Mn2+; assay type: functional, organism-based
[4] = system: Aspergillus niger; assay: Antimicrobial activity against Aspergillus niger CBS 110271; assay type: functional, organism-based
[5] = system: Bacillus subtilis; assay: Antimicrobial activity against Bacillus subtilis in presence of >= 5 mM Ca2+; assay type: functional, organism-based
[6] = system: Aspergillus niger; assay: Antimicrobial activity against Aspergillus niger CBS 110271 in presence of >= 5 uM Ca2+; assay type: functional, organism-based
[7] = system: Fusarium graminearum; assay: Antimicrobial activity against Fusarium graminearum CBS 112.30; assay type: functional, organism-based
[8] = system: Fusarium graminearum; assay: Antimicrobial activity against Fusarium graminearum CBS 112.30 in presence of >= 5 uM Ca2+; assay type: functional, organism-based
[9] = system: Saccharomyces cerevisiae; assay: Antimicrobial activity against Saccharomyces cerevisiae BY4742 in presence of >= 5 uM Ca2+; assay type: functional, organism-based
[10] = system: Saccharomyces cerevisiae; assay: Antimicrobial activity against Saccharomyces cerevisiae BY4742; assay type: functional, organism-based
[11] = system: Acinetobacter baumannii; assay: Antimicrobial activity against Acinetobacter baumannii 1710; assay type: functional, organism-based
[12] = system: Acinetobacter baumannii; assay: Antimicrobial activity against Acinetobacter baumannii 1799; assay type: functional, organism-based
[13] = system: Acinetobacter baumannii; assay: Antimicrobial activity against Acinetobacter baumannii 1710 in presence of >= 5 uM Ca2+; assay type: functional, organism-based
[14] = system: Acinetobacter baumannii; assay: Antimicrobial activity against Acinetobacter baumannii 1799 in presence of >= 5 uM Ca2+; assay type: functional, organism-based
[15] = system: Acinetobacter baumannii; assay: Antimicrobial activity against Acinetobacter baumannii MB5973; assay type: functional, organism-based
[16] = system: Streptomyces coelicolor; assay: Antimicrobial activity against Streptomyces coelicolor A3 in presence of >= 5 uM Ca2+; assay type: functional, organism-based
[17] = system: Acinetobacter baumannii; assay: Antimicrobial activity against Acinetobacter baumannii MB5973 in presence of >= 5 uM Ca2+; assay type: functional, organism-based
[18] = system: Streptomyces coelicolor; assay: Antimicrobial activity against Streptomyces coelicolor A3; assay type: functional, organism-based
[19] = system: Streptococcus pneumoniae; assay: Antimicrobial activity against Streptococcus pneumoniae ATCC 46619; assay type: functional, organism-based
[20] = system: Staphylococcus epidermidis; assay: Antimicrobial activity against Staphylococcus epidermidis; assay type: functional, organism-based
[21] = system: Streptococcus pneumoniae; assay: Antimicrobial activity against Streptococcus pneumoniae ATCC 46619 in presence of >= 5 uM Ca2+; assay type: functional, organism-based
[22] = system: Staphylococcus epidermidis; assay: Antimicrobial activity against Staphylococcus epidermidis in presence of >= 5 uM Ca2+; assay type: functional, organism-based
[23] = system: Staphylococcus aureus; assay: Antimicrobial activity against Staphylococcus aureus MB2865; assay type: functional, organism-based
[24] = system: Staphylococcus aureus; assay: Antimicrobial activity against Staphylococcus aureus MB2865 in presence of >= 5 uM Ca2+; assay type: functional, organism-based
[25] = system: Staphylococcus aureus; assay: Antimicrobial activity against methicillin-sensitive Staphylococcus aureus ATCC 29213; assay type: functional, organism-based
[26] = system: Staphylococcus aureus; assay: Antimicrobial activity against Staphylococcus aureus 1415-10; assay type: functional, organism-based
[27] = system: Staphylococcus aureus; assay: Antimicrobial activity against methicillin-sensitive Staphylococcus aureus ATCC 29213 in presence of >= 5 uM Ca2+; assay type: functional, organism-based
[28] = system: Staphylococcus aureus; assay: Antimicrobial activity against Staphylococcus aureus 1415-10 in presence of >= 5 uM Ca2+; assay type: functional, organism-based
[29] = system: Staphylococcus aureus; assay: Antimicrobial activity against methicillin-resistant Staphylococcus aureus MB5393; assay type: functional, organism-based
[30] = system: Staphylococcus aureus; assay: Antimicrobial activity against methicillin-resistant Staphylococcus aureus MB5393 in presence of >= 5 uM Ca2+; assay type: functional, organism-based
[31] = system: MIA PaCa-2; assay: Cytotoxicity against human MIA PaCa-2 cells assessed as reduction in cell viability; assay type: functional, cell-based
[32] = system: A2058; assay: Cytotoxicity against human A2058 cells assessed as reduction in cell viability; assay type: functional, cell-based
[33] = system: A549; assay: Cytotoxicity against human A549 cells assessed as reduction in cell viability; assay type: functional, cell-based
[34] = system: HepG2; assay: Cytotoxicity against human HepG2 cells assessed as reduction in cell viability; assay type: functional, cell-based
[35] = system: MIA PaCa-2; assay: Cytotoxicity against human MIA PaCa-2 cells assessed as reduction in cell viability in presence of >= 5 uM Ca2+; assay type: functional, cell-based
[36] = system: A2058; assay: Cytotoxicity against human A2058 cells assessed as reduction in cell viability in presence of >= 5 uM Ca2+; assay type: functional, cell-based
[37] = system: A549; assay: Cytotoxicity against human A549 cells assessed as reduction in cell viability in presence of >= 5 uM Ca2+; assay type: functional, cell-based
[38] = system: HepG2; assay: Cytotoxicity against human HepG2 cells assessed as reduction in cell viability in presence of >= 5 uM Ca2+; assay type: functional, cell-based

Measured: Activity

CC[C@H](C)[C@H](NC(=O)[C@H](CC(N)=O)NC(=O)/C=C\C=C\CCC(C)C)C(=O)N[C@H](Cc1ccccc1)C(=O)N[C@H](CS(=O)(=O)O)C(=O)N[C@@H](CC(=O)O)C(=O)N[C@@H]1C(=O)N(C)[C@H](C(C)C)C(=O)NCC(=O)NCC(=O)N[C@H](CCC(=O)O)C(=O)N[C@@H](C)C(=O)N2CCC[C@H]2C(=O)O[C@@H]1C
inactive: all assays above

CC[C@H](C)[C@H](NC(=O)[C@H](CC(N)=O)NC(=O)/C=C\C=C\CCC(C)C)C(=O)N[C@H](Cc1ccccc1)C(=O)N[C@H](CC(=O)O)C(=O)N[C@@H](CC(=O)O)C(=O)N[C@@H]1C(=O)N(C)[C@H](C(C)C)C(=O)NCC(=O)NCC(=O)N[C@H](CCC(=O)O)C(=O)N[C@@H](C)C(=O)N2CCC[C@H]2C(=O)O[C@@H]1C
inactive: all assays above
